Source: US20060234910A1, “Methods for the treatment of insulin resistance and disease states characterized by insulin resistance” (priority 2005, published 2006)

Key:
TR3 gene expression = assay: Quantitative real-time PCR of TR3 gene expression in 3T3-L1 adipocytes; format: cell-based; details: for insulin-stimulated TR3 gene expression: 1 hour
Protocol: (§1) FIGS. 3A-3C show the effect of insulin stimulation on MINOR and TR3 gene expression in 3T3-L1 adipocytes. FIGS. 3A and 3B show insulin induces the expression of MINOR and TR3 gene expression in 3T3-L1 adipocytes. Fully differentiated 3T3-L1 adipocytes were treated with 100 nM of insulin for up to 8 hours (treated) or 0 nM insulin (0 hour control). The control and treated adipocytes were lysed and the mRNAs were extracted for cDNA synthesis. Quantitative real-time PCR was used to measure expression of MINOR (FIG. 3A) and TR3 (FIG. 3B) genes. Results represent the mean±SE from three separate experiments. […] Fully differentiated 3T3-L1 adipocytes were treated with 100 nM of insulin alone (control) or plus LY294002 (PI 3-kinase inhibitor), SB203580 (p38 MAP kinase inhibitor), Ro318220 (protein kinase C inhibitor) for one hour. The control and treated adipocytes were lysed and the mRNAs were extracted for cDNAs synthesis. A quantitative real-time PCR was performed for detecting the expression levels of MINOR and TR3 genes. Results represent the mean±SE from three separate experiments.
(§2) Fully differentiated 3T3-L1 adipocytes were treated with 10 uM of the indicated thiazolidinedione (troglitazone or pioglizatone) from 0 to 48 hours. Control cells received vehicle alone. The control and treated adipocytes were lysed and the mRNAs were extracted for cDNA synthesis. Quantitative real-time PCR was used to measure expression levels of MINOR (FIGS. 4A and 4B) and TR3 (FIGS. 4C and 4D) genes. Results represent the mean±SE from three separate experiments.
(§3) Fully differentiated 3T3-L1 adipocytes were treated with 100 nM of insulin for various times (0 to 8 hours; the 0 hour time point served as the control and received no added insulin). The control and treated adipocytes were lysed and the mRNAs were extracted for cDNAs synthesis. A quantitative real-time PCR was performed for detecting the expression levels of MINOR and TR3 genes. […] Insulin also stimulated TR3 gene expression adipocytes, but with a different temporal response with TR3 expression levels returning to baseline by hour 2 after treatment (FIG. 3B).
(§4) The stimulatory effect of insulin on MINOR and TR3 gene expression was dependent on signal transduction via the PI-3-kinase pathway, the p38 MAP-K pathway and the protein kinase C (PKC) pathway. […] A quantitative real-time PCR was performed for detecting the expression levels of MINOR and TR3 genes. […]
(§5) Fully differentiated 3T3-L1 adipocytes were treated with 10 uM of the indicated thiazolidinedione (troglitazone or pioglizatone) from 0 to 48 hours. […] Quantitative real-time PCR was used to measure expression levels of MINOR (FIGS. 4A and 4B) and TR3 (FIGS. 4C and 4D) genes. […]

MINOR gene expression = assay: Quantitative real-time PCR of MINOR gene expression in 3T3-L1 adipocytes; format: cell-based; details: for insulin-stimulated MINOR gene expression: 1 hour
Protocol: as §1, §2, §3, §4, §5

[1] = test system: GLUT4 glucose transporters at plasma membrane; assay: Plasma membrane lawn assay of GLUT4 in adipocytes; format: cell-based; details: control (LacZ transfected) adipocytes, 100 nM insulin, 30 min vs basal
Protocol: FIGS. 6A-6D show the effect of MINOR gene expression on insulin-mediated recruitment of GLUT4 glucose transporters to plasma membrane. MINOR gene transduced 3T3-L1 fibroblasts and control LacZ transduced fibroblasts were grown on glass cover slips and differentiated into adipocytes. Adipocytes were then stimulated for 30 min with (insulin-stimulated) or without (basal) 100 nM of insulin. The adipocytes were then washed, and disrupted by sonication leaving and plasma membrane sheets attached to cover slips (plasma membrane lawn assay) (26). Plasma membrane associated GLUT4 was detected using a polyclonal anti-GLUT4 antibody and a FITC-conjugated secondary antibody. (A) basal LacZ expressing adipocytes; (B) insulin-stimulated LacZ expressing adipocytes; (C) basal Minor expressing adipocytes; (D) insulin-stimulated Minor expressing adipocytes.
These experiments use the “plasma membrane lawn” technique (26) to quantify the relative amounts of GLUT4 glucose transporter proteins in the cell surface plasma membrane. MINOR gene transduced 3T3-L1 fibroblasts and control LacZ transduced fibroblasts were grown on glass cover slips and differentiated into adipocytes. […] Plasma membrane associated GLUT4 was detected using a polyclonal anti-GLUT4 antibody and a FITC-conjugated secondary antibody.

[2] = test system: TR3 gene expression in skeletal muscle; assay: cDNA microarray of skeletal muscle biopsies, basal vs hyperinsulinemia (TR3); format: in vivo, human; details: insulin stimulation, three hours of hyperinsulinemia vs basal
Text: (§6) The primary target tissues for insulin action are skeletal muscle, adipose tissue, and the liver tissue. Skeletal muscle is the predominant target tissue for insulin-mediated glucose uptake (responsible for approximately 95% of glucose uptake), and is a critical locus of insulin resistance. Defects in glucose uptake in skeletal muscle is a predominate contributor to the clinical manifestations of insulin resistance. The molecular basis for insulin resistance is not well understood, but appears to involve defects in insulin signal transduction and abnormal cellular trafficking of glucose transporter proteins (5). To better understand the molecular defects responsible for human insulin resistance, skeletal muscle biopsies were obtained from volunteers in three metabolically-defined subgroups: A) insulin sensitive: (B) insulin resistant; and (C) type 2 diabetic. Biopsies from each subgroup were obtained under both basal conditions and after three hours of hyperinsulinemia. Differential gene expression in these muscle biopsies was assessed using cDNA microarray technology utilizing the Affymetrix Hu95A gene expression chips (carried out as per manufacturer's instructions). The effect of insulin on gene expression in human muscle has not been extensively studied, and most prior studies focused on single genes or small numbers of genes with a limited focus (6-8). […]

[3] = test system: MINOR gene expression in skeletal muscle; assay: cDNA microarray of skeletal muscle biopsies, basal vs hyperinsulinemia (MINOR); format: in vivo, human; details: insulin stimulation, three hours of hyperinsulinemia vs basal
Text: as §6

Nurr1 gene expression = Nurr1 gene expression in 3T3-L1 adipocytes; format: cell-based; details: fully differentiated 3T3-L1 adipocytes, 100 nM insulin; data not shown
[4] = 3T3-L1 adipocytes, 100 nM insulin plus inhibitor 50 nM
[5] = 3T3-L1 adipocytes, 100 nM insulin plus inhibitor 10 nM
[6] = 3T3-L1 adipocytes, 100 nM insulin
[7] = fully differentiated 3T3-L1 adipocytes, 100 nM insulin, 0 to 8 hours

What does the source list for `Cn1cc(C2=C(c3cn(CCCSC(=N)N)c4ccccc34)C(=O)NC2=O)c2ccccc21` [Ro318220, reference compound]?
insulin-stimulated TR3 gene expression (TR3 gene expression; [4]): decreased the ability of insulin to stimulate; insulin-stimulated MINOR gene expression (MINOR gene expression; [4]): decreased the ability of insulin to stimulate

How did the “insulin-stimulated TR3 gene expression” value (TR3 gene expression; [5]) turn out when `C[S+]([O-])c1ccc(-c2nc(-c3ccncc3)c(-c3ccc(F)cc3)[nH]2)cc1` (stereo not drawn) [SB203580, reference compound] was run?
Its value is “decreased the ability of insulin to stimulate”.

What about the “insulin-stimulated MINOR gene expression” value (MINOR gene expression; [5]) of the same compound?
The value was “decreased the ability of insulin to stimulate”.

With insulin as the compound, how does the “time at which TR3 expression levels return to baseline after treatment” value (TR3 gene expression; [6]) read?
The value was ≤ 2 h.

And the TR3 gene expression (TR3 gene expression; [7])?
Its TR3 gene expression is “stimulated”.

What about the “period over which the increase in MINOR gene expression is sustained” value (MINOR gene expression; [6]) of the same compound?
Its value is 4 h.

What about the MINOR gene expression (MINOR gene expression; [7]) of the same compound?
Its MINOR gene expression is “stimulated”.

What about the “plasma membrane associated GLUT4” value [1] of the same compound?
Its value is “increased GLUT4 staining in the plasma membrane”.

What about the “TR3 gene expression in human skeletal muscles (microarray)” value [2] of the same compound?
The value was “strongly induced”.

And the “MINOR gene expression in human skeletal muscles (microarray)” value [3]?
The value was “strongly induced”.

And the Nurr1 gene expression (Nurr1 gene expression)?
Its Nurr1 gene expression is “not stimulated”.
